Conditions: Liquid, Frequency=8 MHz, Pulse-echo method

C[Si](C)(C)O[Si](C)(C)O[Si](C)(C)O[Si](C)(C)C [decamethyltetrasiloxane]
Conditions | speed of sound [m/s]
217.81 K, 2 kPa | 1232
217.81 K, 1324 kPa | 1238.8
217.85 K, 9419 kPa | 1278.4
217.9 K, 19699 kPa | 1325.2
217.99 K, 40255 kPa | 1409.2
218.01 K, 60115 kPa | 1481.3
218.09 K, 79712 kPa | 1545.9
218.16 K, 98572 kPa | 1603
218.24 K, 118233 kPa | 1658.4
249.42 K, 119047 kPa | 1575.5
249.53 K, 98950 kPa | 1515.2
249.65 K, 80370 kPa | 1454.9
249.74 K, 59554 kPa | 1380.8
249.8 K, 19343 kPa | 1208.7
249.8 K, 39384 kPa | 1300.3
249.84 K, 1077 kPa | 1110.1
249.84 K, 9240 kPa | 1156.2
299.9 K, 16 kPa | 925.67
299.92 K, 1080 kPa | 933.63
299.94 K, 121 kPa | 926.31
299.96 K, 958 kPa | 932.76
299.98 K, 9659 kPa | 994.25
300 K, 19671 kPa | 1056.3
300 K, 60024 kPa | 1252.4
300 K, 80266 kPa | 1331.2
300 K, 99198 kPa | 1397.7
300.01 K, 40202 kPa | 1164.3
300.04 K, 119626 kPa | 1463.1
349.87 K, 59744 kPa | 1145.5
349.89 K, 9447 kPa | 851.51
349.89 K, 99170 kPa | 1302.5
349.89 K, 119296 kPa | 1370.8
349.9 K, 19447 kPa | 925.37
349.92 K, 80462 kPa | 1232.5
349.93 K, 1369 kPa | 780.56
349.93 K, 40092 kPa | 1049.2
399.55 K, 120290 kPa | 1300.1
399.6 K, 1077 kPa | 636.31
399.6 K, 9691 kPa | 731.33
399.67 K, 1234 kPa | 638.18
399.67 K, 20055 kPa | 820.52
399.69 K, 38533 kPa | 945.04
399.69 K, 60934 kPa | 1064.3
399.7 K, 81120 kPa | 1154.3
399.7 K, 99014 kPa | 1224.6
449.89 K, 9702 kPa | 623.33
449.92 K, 19667 kPa | 723.35
449.96 K, 40506 kPa | 876.94
449.99 K, 59941 kPa | 986.94
450.01 K, 80184 kPa | 1082.5
450.03 K, 99670 kPa | 1162.7
450.04 K, 119488 kPa | 1235.4
450.05 K, 1060 kPa | 502.02
499.61 K, 9979 kPa | 534.61
499.67 K, 20291 kPa | 650.54
499.69 K, 40057 kPa | 807.98
499.72 K, 4164 kPa | 442.17
499.72 K, 60022 kPa | 927.39
499.75 K, 5168 kPa | 460.32
499.75 K, 80169 kPa | 1026.5
499.76 K, 1001 kPa | 371.6
499.78 K, 3058 kPa | 420.07
499.8 K, 99589 kPa | 1109
499.82 K, 1926 kPa | 395
499.89 K, 119374 kPa | 1183.6

C[Si](C)(C)O[Si](C)(C)O[Si](C)(C)C [octamethyltrisiloxane]
Conditions | speed of sound [m/s]
299.61 K, 10196 kPa | 986.47
299.62 K, 101 kPa | 911.32
299.63 K, 502 kPa | 914.41
299.64 K, 984 kPa | 918.29
299.64 K, 1480 kPa | 922.14
299.65 K, 2012 kPa | 926.38
299.66 K, 3441 kPa | 937.36
299.68 K, 20155 kPa | 1050.3
299.69 K, 5923 kPa | 955.8
299.71 K, 30179 kPa | 1107.3
349.58 K, 3704 kPa | 781
349.59 K, 2066 kPa | 764.64
349.59 K, 10127 kPa | 839.26
349.6 K, 1556 kPa | 759.34
349.61 K, 6067 kPa | 803.25
349.61 K, 20075 kPa | 915.62
349.64 K, 29800 kPa | 980.01
349.65 K, 1075 kPa | 754.2
349.69 K, 558 kPa | 748.58
349.91 K, 111 kPa | 742.97
399.42 K, 29701 kPa | 873.39
399.95 K, 2018 kPa | 610.77
399.96 K, 508 kPa | 588.68
399.96 K, 993 kPa | 595.83
399.96 K, 1439 kPa | 602.33
399.96 K, 3510 kPa | 630.8
400.02 K, 9928 kPa | 704.99
400.15 K, 19875 kPa | 796.17
449.44 K, 23518 kPa | 734.5
449.96 K, 1045 kPa | 448.89
449.98 K, 1523 kPa | 458.69
449.99 K, 492 kPa | 436.7
450.01 K, 1994 kPa | 468.09
450.05 K, 3497 kPa | 495.73
450.09 K, 6009 kPa | 536.6
450.14 K, 9983 kPa | 591.45
450.22 K, 20246 kPa | 701.94
498.94 K, 3487 kPa | 373.05
498.96 K, 1989 kPa | 328.83
499 K, 5834 kPa | 424.21
499.02 K, 1521 kPa | 313.47
499.02 K, 10178 kPa | 498.23
499.04 K, 1000 kPa | 292.6
499.05 K, 16859 kPa | 585.07
549.67 K, 15312 kPa | 492.6
549.74 K, 6653 kPa | 340.31
549.79 K, 4484 kPa | 279.71
549.8 K, 10050 kPa | 411.61
549.84 K, 12528 kPa | 452.26
